{"source": "paper PMC10933920", "about": "“Synthesis and Anti-Inflammatory Activity of Ferulic Acid-Sesquiterpene Lactone Hybrids” (Molecules, 2024)", "origin": "cited, not measured here", "test_system": "primary lung fibroblasts derived from patients with IPF and non-diseased controls", "set-up": "method as in PMID 33730605", "conditions": "unstimulated fibroblasts, 0–10 µM ACT001; cited from earlier work"}
{"molecule": "CC1=C2CC[C@@](C)(O)[C@@H]2[C@H]2OC(=O)[C@@H](CN(C)C)[C@@H]2CC1", "note": "[ACT001]", "values": [{"measurement": "IL-6 production", "result": "inhibited IL-6"}]}
